From ChEMBL document CHEMBL1143809, “New bis-N9-(methylphenylmethyl)purine derivatives: synthesis and antitumor activity” (2007)

Assays:
Format in all cases: functional
SNB-19 = test: Growth inhibition of human SNB19 cells after 48 hrs by SRB protein assay; settings: SNB-19, 48 h; for CC50: read-out: LC50 (the source's name)
UO-31 = test: Growth inhibition of human UO31 cells after 48 hrs by SRB protein assay; settings: UO-31, 48 h
MDA-MB-231 = test: Growth inhibition of human MDA-MB-231 cells after 48 hrs by SRB protein assay; settings: MDA-MB-231, 48 h
786-0 = test: Growth inhibition of human 786-0 cells after 48 hrs by SRB protein assay; settings: 786-0, 48 h; for CC50: read-out: LC50 (the source's name)
A498 = test: Growth inhibition of human A498 cells after 48 hrs by SRB protein assay; settings: A498, 48 h; for CC50: read-out: LC50 (the source's name)
SF-295 = test: Growth inhibition of human SF295 cells after 48 hrs by SRB protein assay; settings: SF-295, 48 h
MCF7 = test: Growth inhibition of human MCF7 cells after 48 hrs by SRB protein assay; settings: MCF7, 48 h
SN12C = test: Growth inhibition of human SN12C cells after 48 hrs by SRB protein assay
T47D = test: Growth inhibition of human T47D cells after 48 hrs by SRB protein assay
SK-MEL-2 = test: Growth inhibition of human SK-MEL-2 cells after 48 hrs by SRB protein assay; settings: SK-MEL-2, 48 h; for CC50: read-out: LC50 (the source's name)
[1] = Growth inhibition of human NCL-H522 cells after 48 hrs by SRB protein assay; settings: NCL-H522, 48 h
KM12 = test: Growth inhibition of human KM12 cells after 48 hrs by SRB protein assay; settings: KM12, 48 h
HCT-15 = test: Growth inhibition of human HCT15 cells after 48 hrs by SRB protein assay; settings: HCT-15, 48 h
DU-145 = test: Growth inhibition of human DU145 cells after 48 hrs by SRB protein assay; settings: DU-145, 48 h; for CC50: read-out: LC50 (the source's name)
HCC 2998 = test: Growth inhibition of human HCC2998 cells after 48 hrs by SRB protein assay; settings: HCC 2998, 48 h
M14 = test: Growth inhibition of human M14 cells after 48 hrs by SRB protein assay; settings: M14, 48 h
RPMI-8226 = test: Growth inhibition of human RPMI8226 cells after 48 hrs by SRB protein assay; settings: RPMI-8226, 48 h
OVCAR-5 = test: Growth inhibition of human OVCAR5 cells after 48 hrs by SRB protein assay; settings: OVCAR-5, 48 h; for CC50: read-out: LC50 (the source's name)
NCI-H460 = test: Anticancer activity against human NCL-H460 cells assessed as growth at 100 uM after 48 hrs by SRB protein assay relative to control; settings: NCI-H460, 48 h, read-out: Activity
HT-29 = test: Growth inhibition of human HT29 cells after 48 hrs by SRB protein assay; settings: HT-29, 48 h
[2] = Growth inhibition of human NCL-H226 cells after 48 hrs by SRB protein assay; settings: NCL-H226, 48 h
Hs-578T = test: Growth inhibition of human HS578T cells after 48 hrs by SRB protein assay
[3] = Growth inhibition of human NCL-H322M cells after 48 hrs by SRB protein assay; settings: for CC50: read-out: LC50 (the source's name)
A549 = test: Growth inhibition of human A549 cells after 48 hrs by SRB protein assay; settings: A549, 48 h
MDA-MB-435 = test: Growth inhibition of human MDA-MB-435 cells after 48 hrs by SRB protein assay; settings: MDA-MB-435, 48 h
SK-OV-3 = test: Growth inhibition of human SK-OV-3 cells after 48 hrs by SRB protein assay; settings: SK-OV-3, 48 h
[4] = read-out: LC50 (the source's name)

Clc1nc(Cl)c2ncn(Cc3cccc(Cn4cnc5c(Cl)nc(Cl)nc54)c3)c2n1 showed a GI50 (SNB-19) of 3.02 µM, a TGI (SNB-19) of 13.8 µM and a CC50 (SNB-19) of 60.2 µM. For the same molecule, the GI50 (UO-31) was 1.9 µM, the LC50 (UO-31) was 6.6 µM and the TGI (UO-31) was 3.54 µM. The GI50 (MDA-MB-231) was 2.63 µM, the LC50 (50% lethal concentration) (MDA-MB-231) was 30.2 µM and the TGI (MDA-MB-231) was 7.07 µM. For the same molecule, the GI50 (786-0) was 12.3 µM, the TGI (786-0) was 26.3 µM and the CC50 (786-0) was 57.5 µM. The GI50 (A498) was 4.57 µM, the TGI (A498) was 17.4 µM and the CC50 (A498) was 46.8 µM. The GI50 (SF-295) was 16.6 µM, the LC50 (SF-295) was 57.5 µM and the TGI (SF-295) was 30.9 µM. The GI50 (MCF7) was 3.63 µM, the LC50 (MCF7) was over 100 µM and the TGI (MCF7) was 37.1 µM. The GI50 (SN12C) was 4.67 µM, the LC50 (SN12C) was 60.2 µM and the TGI (SN12C) was 18.2 µM. It also gave a GI50 (T47D) of 3.02 µM, an LC50 (T47D) of over 100 µM and a TGI (T47D) of 8.51 µM. It also gave a GI50 (SK-MEL-2) of 2.81 µM, a TGI (SK-MEL-2) of 7.76 µM and a CC50 (SK-MEL-2) of 35.5 µM. It also gave a GI50 [1] of 2.88 µM, an LC50 [1] of 41.7 µM and a TGI [1] of 7.07 µM. It also gave a GI50 (KM12) of 2.88 µM, an LC50 (concentration killing 50% of cells) (KM12) of 33.1 µM and a TGI (KM12) of 8.91 µM. It also gave a GI50 (HCT-15) of 5.75 µM, an LC50 (HCT-15) of 74.1 µM and a TGI (HCT-15) of 22.4 µM. For the same molecule, the GI50 (DU-145) was 1.73 µM, the TGI (DU-145) was 3.09 µM and the CC50 (DU-145) was 5.62 µM. It also gave a GI50 (HCC 2998) of 2.39 µM, an LC50 (HCC 2998) of 25.7 µM and a TGI (HCC 2998) of 7.07 µM. For the same molecule, the GI50 (M14) was 2.75 µM, the LC50 (M14) was 33.9 µM and the TGI (M14) was 7.58 µM. For the same molecule, the GI50 (RPMI-8226) was 2.57 µM, the TGI (RPMI-8226) was 11.2 µM and the CC50 (RPMI-8226; [4]) was over 100 µM. For the same molecule, the GI50 (OVCAR-5) was 20.9 µM, the TGI (OVCAR-5) was 38 µM and the CC50 (OVCAR-5) was 70.8 µM. The growth at 100 µM (NCI-H460) was 0%, the GI50 (HT-29) was 4.46 µM and the LC50 (HT-29) was over 100 µM. It also gave a TGI (HT-29) of over 100 µM, a GI50 [2] of 4.78 µM and an LC50 [2] of over 100 µM. The TGI [2] was 26.9 µM, the GI50 (Hs-578T) was 2.69 µM and the LC50 (concentration killing 50% of cells) (Hs-578T) was 83.2 µM. The TGI (Hs-578T) was 7.24 µM, the GI50 [3] was 14.1 µM and the TGI [3] was 27.5 µM. For the same molecule, the CC50 [3] was 52.5 µM, the GI50 (A549) was 11.2 µM and the LC50 (A549) was 61.6 µM. For the same molecule, the TGI (A549) was 26.3 µM, the GI50 (MDA-MB-435) was 7.24 µM and the LC50 (MDA-MB-435) was 58.9 µM. The TGI (MDA-MB-435) was 22.4 µM.

With Clc1nc(Cl)c2ncn(Cc3ccccc3Cn3cnc4c(Cl)nc(Cl)nc43)c2n1 the GI50 (SNB-19) was 3.98 µM, the TGI (SNB-19) was over 100 µM and the CC50 (SNB-19) was over 100 µM. The GI50 (UO-31) was 1.95 µM, the LC50 (UO-31) was 7.41 µM and the TGI (UO-31) was 3.8 µM. It also gave a GI50 (MDA-MB-231) of 1.82 µM, an LC50 (50% lethal concentration) (MDA-MB-231) of 6.46 µM and a TGI (MDA-MB-231) of 3.39 µM. The GI50 (786-0) was 10 µM, the TGI (786-0) was 25.1 µM and the CC50 (786-0) was 63.1 µM. For the same molecule, the GI50 (A498) was 17 µM, the TGI (A498) was 33.9 µM and the CC50 (A498) was 67.6 µM. The GI50 (SF-295) was 15.1 µM, the LC50 (SF-295) was 57.3 µM and the TGI (SF-295) was 28.2 µM. For the same molecule, the GI50 (MCF7) was 1.55 µM, the LC50 (MCF7) was over 100 µM and the TGI (MCF7) was 4.57 µM. For the same molecule, the GI50 (SN12C) was 2.51 µM, the LC50 (SN12C) was 26.9 µM and the TGI (SN12C) was 6.61 µM. It also gave a GI50 (T47D) of 2.19 µM, an LC50 (T47D) of over 100 µM and a TGI (T47D) of 5.89 µM. For the same molecule, the GI50 (SK-MEL-2) was 6.31 µM, the TGI (SK-MEL-2) was 26.9 µM and the CC50 (SK-MEL-2) was over 100 µM. The GI50 [1] was 3.39 µM, the LC50 [1] was over 100 µM and the TGI [1] was 9.12 µM. The GI50 (KM12) was 3.31 µM, the LC50 (concentration killing 50% of cells) (KM12) was 34.7 µM and the TGI (KM12) was 10 µM. For the same molecule, the GI50 (HCT-15) was 1.86 µM, the LC50 (HCT-15) was 12.6 µM and the TGI (HCT-15) was 4.47 µM. It also gave a GI50 (DU-145) of 1 µM, a TGI (DU-145) of 2.51 µM and a CC50 (DU-145) of 6.46 µM. The LC50 (HCC 2998) was 21.4 µM, the TGI (HCC 2998) was 4.9 µM and the GI50 (SK-OV-3) was 11.5 µM. For the same molecule, the TGI (SK-OV-3) was 31.6 µM, the CC50 (SK-OV-3; [4]) was 87.1 µM and the GI50 (M14) was 15.8 µM. It also gave an LC50 (M14) of 61.7 µM, a TGI (M14) of 38.9 µM and a GI50 (RPMI-8226) of 0.55 µM. The TGI (RPMI-8226) was 2.34 µM, the GI50 (OVCAR-5) was 20.9 µM and the TGI (OVCAR-5) was 38 µM. For the same molecule, the CC50 (OVCAR-5) was 70.8 µM, the growth at 100 µM (NCI-H460) was 0% and the GI50 (HT-29) was 3.31 µM. The LC50 (HT-29) was over 100 µM, the TGI (HT-29) was over 100 µM and the GI50 [2] was 3.09 µM. It also gave an LC50 [2] of 26.9 µM, a TGI [2] of 7.24 µM and a GI50 (Hs-578T) of 3.09 µM. It also gave an LC50 (concentration killing 50% of cells) (Hs-578T) of over 100 µM, a TGI (Hs-578T) of 11.2 µM and a GI50 [3] of 14.5 µM. The TGI [3] was 27.5 µM, the CC50 [3] was 52.5 µM and the GI50 (A549) was 4.79 µM. It also gave an LC50 (A549) of over 100 µM, a TGI (A549) of 20.4 µM and a GI50 (MDA-MB-435) of 2.4 µM. The LC50 (MDA-MB-435) was 17.4 µM and the TGI (MDA-MB-435) was 5.5 µM.
